Test results: PubChem BioAssay AID192 (DTP/NCI, 2004)
Where “and” joins values, the source holds several entries; their conditions need not be identical. Equal entries are not always repeated. Inconclusive results and toxic doses are left out. How the source made its calls: active means survival T/C of 150% or more; inactive means T/C below 125% in these data.

System: BDF1 mice, B16 melanoma ip, median survival T/C
Test: NCI In Vivo Anticancer Drug Screen. Data for tumor model B16 Melanoma (intraperitoneal) in B6D2F1 (BDF1) mice
Details: endpoint: median survival time, higher = longer survival
Procedure, shortened: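 Read-out: survival or tumor size, given as treated/control ratio. Controls received vehicle only; animals bore transplantable tumors.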

[1] = dose: 12.5 mg/kg/injection, schedule: Q01DX009 (ip), vehicle: saline with Tween-80
[2] = dose: 25.0 mg/kg/injection, schedule: Q01DX009 (ip), vehicle: Klucel (hydroxypropylcellulose) (HPC)
[3] = dose: 50.0 mg/kg/injection, schedule: Q01DX009 (ip), vehicle: Klucel (hydroxypropylcellulose) (HPC)
[4] = dose: 100.0 mg/kg/injection, schedule: Q01DX009 (ip), vehicle: Klucel (hydroxypropylcellulose) (HPC)
[5] = dose: 25.0 mg/kg/injection, schedule: Q01DX009 (ip), vehicle: saline
[6] = dose: 50.0 mg/kg/injection, schedule: Q01DX009 (ip), vehicle: saline
[7] = dose: 100.0 mg/kg/injection, schedule: Q01DX009 (ip), vehicle: saline
[8] = dose: 6.25 mg/kg/injection, schedule: Q01DX009 (ip), vehicle: Klucel (hydroxypropylcellulose) (HPC)
[9] = dose: 12.5 mg/kg/injection, schedule: Q01DX009 (ip), vehicle: Klucel (hydroxypropylcellulose) (HPC)

Measured: T/C

Cc1ccc(C)c(CCN)c1
inactive: [1] 104 % of control | dose: 25.0 mg/kg/injection, schedule: Q01DX009 (ip), vehicle: saline with Tween-80 97 % of control

CCOC(=O)C(Cc1ccc(O)cc1)Nc1nc2ccccc2o1 (stereo unspecified)
inactive: dose: 50.0 mg/kg/injection, schedule: Q01DX009 (ip), vehicle: saline with Tween-80 103 % of control | dose: 100.0 mg/kg/injection, schedule: Q01DX009 (ip), vehicle: saline with Tween-80 106 % of control | dose: 200.0 mg/kg/injection, schedule: Q01DX009 (ip), vehicle: saline with Tween-80 106 % of control | dose: 400.0 mg/kg/injection, schedule: Q01DX009 (ip), vehicle: saline with Tween-80 96 % of control

Cc1cc(Cc2ccc(N=C=O)c(C)c2)ccc1N=C=O
inactive: dose: 3.13 mg/kg/injection, schedule: Q01DX009 (ip), vehicle: saline with Tween-80 89 % of control | dose: 6.25 mg/kg/injection, schedule: Q01DX009 (ip), vehicle: saline with Tween-80 92 % of control | [1] 92 % of control and 102 % of control

C[NH-].C[NH-].C[NH-].C[NH-].[Cl][Rh][Cl]
inactive: [2] 114 % of control | [3] 120 % of control | [4] 105 % of control

C=C1C/C(=C/C)C(=O)O[C@@H]2CCN3CC=C(COC(=O)[C@]1(C)O)[C@H]23
inactive: dose: 12.5 mg/kg/injection, schedule: Q01DX009 (ip), vehicle: saline 109 % of control | [5] 116 % of control | [6] 116 % of control | [7] 107 % of control

COc1cccc(C)c1[N+](=O)[O-]
inactive: dose: 75.0 mg/kg/injection, schedule: Q04DX003 (ip), vehicle: Klucel (hydroxypropylcellulose) (HPC) 92 % of control | dose: 150.0 mg/kg/injection, schedule: Q04DX003 (ip), vehicle: Klucel (hydroxypropylcellulose) (HPC) 109 % of control | dose: 300.0 mg/kg/injection, schedule: Q04DX003 (ip), vehicle: Klucel (hydroxypropylcellulose) (HPC) 90 % of control

C[C@H]1C[C@@H]2[C@H]([C@@H](O)C[C@@]3(C)[C@H]2CC[C@]3(O)C(=O)CO)[C@@]2(C)C=CC(=O)C=C12
inactive: [8] 115 % of control | [9] 115 % of control | [2] 117 % of control | [4] 116 % of control | dose: 200.0 mg/kg/injection, schedule: Q01DX009 (ip), vehicle: Klucel (hydroxypropylcellulose) (HPC) 112 % of control

CC(c1c[nH]c2ccccc12)N1CCCCC1 (stereo unspecified)
inactive: [9] 97 % of control | [2] 95 % of control | [3] 98 % of control

NC(=O)N1OCC(N)C1=O (stereo unspecified)
inactive: [6] 95 % of control | [7] 103 % of control | dose: 200.0 mg/kg/injection, schedule: Q01DX009 (ip), vehicle: saline 95 % of control

NC(=O)Nc1n[nH]c(-c2ccccc2)n1
inactive: [5] 99 % of control | [6] 99 % of control | [7] 86 % of control

c1ccc2c(c1)[As]=c1ccccc1=[As]2 (stereo unspecified)
inactive: dose: 0.75 mg/kg/injection, schedule: Q01DX009 (ip), vehicle: saline with Tween-80 104 % of control | dose: 1.5 mg/kg/injection, schedule: Q01DX009 (ip), vehicle: saline with Tween-80 106 % of control | dose: 3.0 mg/kg/injection, schedule: Q01DX009 (ip), vehicle: saline with Tween-80 100 % of control | dose: 6.0 mg/kg/injection, schedule: Q01DX009 (ip), vehicle: saline with Tween-80 110 % of control

Nc1nc(=S)c2[nH]c(N=Nc3ccc(S(=O)(=O)Nc4ncccn4)cc3)nc2[nH]1
inactive: dose: 1.56 mg/kg/injection, schedule: Q01DX009 (ip), vehicle: Klucel (hydroxypropylcellulose) (HPC) 95 % of control | dose: 3.12 mg/kg/injection, schedule: Q01DX009 (ip), vehicle: Klucel (hydroxypropylcellulose) (HPC) 102 % of control | [8] 113 % of control | [9] 102 % of control
